Experimental data from patent US20260022143A1, “Cyclic Peptide Inhibitors of IL-23” (JANSSEN PHARMACEUTICA NV, priority 2022, published 2026).
Starred links: 1 amine or outer side, 2 acyl side, 3 side chain; linkers in the order of their positions; H or OH if unused. Positions of bridges follow the written chain, without caps; N, C: chain ends. Non-standard residues stand in square brackets, D forms with d. Residues, ends and D or L forms follow the SMILES beside them. Groups on a side chain read outwards from the residue. ξ: configuration not given here. *: point of attachment. Trp(7-(3-AcNH-Ph)) = CC(=O)Nc1cccc(-c2cccc3c(C[C@H](N)C(=O)O)c[nH]c23)c1; Me3N+(CH2)2O(CH2)2O(CH2)2CO = C[N+](C)(C)CCOCCOCCC(=O)*; CH2CH2OCH2CH2OCH2CH2NMe3+ = C[N+](C)(C)CCOCCOCC*; Trp(7-Me) = Cc1cccc2c(C[C@H](N)C(=O)O)c[nH]c12; dLys(Me3) = C[N+](C)(C)CCCC[C@@H](N)C(=O)O; X1 = CN(CC[C@H](N[*:1])C(=O)[*:2])[*:3]; 2Nal = N[C@@H](Cc1ccc2ccccc2c1)C(=O)O; AEF = NCCOc1ccc(C[C@H](N)C(=O)O)cc1; PEG6 = NCCOCCOCCOCCOCCOCCOCCC(=O)O; 3Pal = N[C@@H](Cc1cccnc1)C(=O)O; Ethyl(2-guanidino) = N=C(N)NCC*; ξThr(3R) = C[C@@H](O)C(N)C(=O)O; Lys(Me) = CNCCCC[C@H](N)C(=O)O; X7 = COCCOCCOCCOCCOCCOCCC(=O)*; Pen = CC(C)(S)[C@H](N)C(=O)O; X52 = C[N+](C)(C)CCOCCNCC*; Thp = NC1(C(=O)O)CCOCC1; X3 = C[N+](C)(C)CCCCC*; Me2NCH2CH2 = CN(C)CC*; Sar = CNCC(=O)O

Assays:
IL-23R = target: T1, IL-23R (Homo sapiens, UniProt Q5VWK5); test: IL23R Reporter Assay; assay type: cell-based; conditions: HEK293 cells containing IL-23R, IL-12RP1 and STAT-inducible firefly luciferase reporter; 10 ng/mL IL-23 (EC90); 5 h at 37° C.; read-out: IL23R Reporter Assay
T1 construct: host or cells: HEK293
T1 sequence (Q5VWK5 24-629): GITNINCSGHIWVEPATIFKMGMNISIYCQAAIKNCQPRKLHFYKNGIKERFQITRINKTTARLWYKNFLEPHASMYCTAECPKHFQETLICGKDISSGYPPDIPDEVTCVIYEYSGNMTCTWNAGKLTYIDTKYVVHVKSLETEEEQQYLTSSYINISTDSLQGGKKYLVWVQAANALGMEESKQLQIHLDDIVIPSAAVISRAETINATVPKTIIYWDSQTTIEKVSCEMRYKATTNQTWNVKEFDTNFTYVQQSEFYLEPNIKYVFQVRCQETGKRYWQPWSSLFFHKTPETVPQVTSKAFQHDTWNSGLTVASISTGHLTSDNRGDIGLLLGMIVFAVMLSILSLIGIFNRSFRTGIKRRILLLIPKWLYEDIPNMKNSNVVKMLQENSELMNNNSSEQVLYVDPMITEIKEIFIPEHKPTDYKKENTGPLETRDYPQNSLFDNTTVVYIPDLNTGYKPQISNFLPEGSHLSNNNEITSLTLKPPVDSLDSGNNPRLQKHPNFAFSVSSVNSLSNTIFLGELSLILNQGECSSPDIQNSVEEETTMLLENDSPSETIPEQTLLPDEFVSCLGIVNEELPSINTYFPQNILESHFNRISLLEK

[1] = Exposed Polar Surface Area (EPSA); assay type: physicochemical; conditions: SFC on Chirex 3014 column; sample 1 mM DMSO stock; read-out: EPSA
How it was run: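 Polarity measured by SFC on a Chirex 3014 column (35 °C, 4 mL/min) with methanol/ammonium formate in CO2 as gradient eluent. Retention times were normalised to EPSA (Å^2) against eight reference compounds.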

SMILES	IC50 (IL-23R)	EPSA [1]
CC(=O)NCCCC[C@@H]1NC(=O)[C@H](Cc2c[nH]c3c(-c4cccc(NC(C)=O)c4)cccc23)NC(=O)[C@H]([C@@H](C)O)NC(=O)[C@H](CC(N)=O)NC(=O)[C@@H](NC(=O)[C@@H](CCCC[N+](C)(C)C)NC(C)=O)C(C)(C)SSC(C)(C)[C@@H](C(=O)N[C@@H](Cc2ccc(OCCNC(=N)N)cc2)C(=O)N[C@@H](Cc2ccc3ccccc3c2)C(=O)NC2(C(=O)N[C@@H](CCC(=O)O)C(=O)N[C@@H](CC(N)=O)C(=O)N[C@@H](Cc3cccnc3)C(=O)N(C)CC(N)=O)CCOCC2)NC1=O [compound 563, MeCO-k(Me)3-Pen(3)-N-T-7(3NAcPh)W-K(Ac)-Pen(3)-AEF(G)-2Nal-THP-E-N-3Pya-Sar-CONH2] (Ac-[dLys(Me3)][Pen]NT[Trp(7-(3-AcNH-Ph))]K(Ac)[Pen]Y(Ethyl(2-guanidino))[2Nal][Thp]EN[3Pal][Sar]-NH2; disulfide 2-7)	1.5 nM	194 A^2
Cc1cccc2c(C[C@@H]3NC(=O)[C@H]([C@@H](C)O)NC(=O)[C@H](CC(=O)N(C)C)NC(=O)[C@@H](NC(=O)CCOCCOCC[N+](C)(C)C)C(C)(C)SSC(C)(C)[C@@H](C(=O)N[C@@H](Cc4ccc(OCCN)cc4)C(=O)N[C@@H](Cc4ccc5ccccc5c4)C(=O)NC4(C(=O)N[C@@H](CCC(=O)N(C)C)C(=O)N[C@@H](CC(N)=O)C(=O)N[C@@H](Cc5cccnc5)C(=O)N(C)CC(=O)N(C)C)CCOCC4)NC(=O)[C@H](CCC(=O)N(C)C)NC3=O)c[nH]c12 [compound 139, cPEG3aCO-Pen(3)-N(N(Me)2)-T-7MeW-Q(N(Me)2)-Pen(3)-AEF-2Nal-THP-Q(N(Me)2)-N-3Pya-Sar-CON(Me)2] ({Me3N+(CH2)2O(CH2)2O(CH2)2CO}-[Pen]D(NMe2)T[Trp(7-Me)]E(NMe2)[Pen][AEF][2Nal][Thp]E(NMe2)N[3Pal][Sar]-NMe2; disulfide 1-6)	3.4 nM	150 A^2
CC(=O)N(C)CCCC[C@H](NC(=O)[C@H](C)NC(=O)[C@H](Cc1ccc2ccccc2c1)NC(=O)[C@H](Cc1ccc(OCCCCC[N+](C)(C)C)cc1)NC(=O)[C@H]1NC(=O)[C@H](CCCCN(C)C(C)=O)NC(=O)[C@H](Cc2c[nH]c3c(C)cccc23)NC(=O)C([C@@H](C)O)NC(=O)[C@H](CC(=O)N(C)C)NC(=O)[C@@H](NC(=O)CCOCCOCC[N+](C)(C)C)C(C)(C)SSC1(C)C)C(=O)N[C@@H](CC(N)=O)C(=O)N[C@@H](Cc1cccnc1)C(=O)N(C)CC(=O)N(C)C (stereo partly drawn) [compound 488, cPEG3aCO-Pen(3)-N(N(Me)2)-T-7MeW-K(NMeAc)-Pen(3)-TMAPf-2Nal-A-K(NMeAc)-N-3Pya-Sar-CON(Me)2] ({Me3N+(CH2)2O(CH2)2O(CH2)2CO}-[Pen]D(NMe2)[ξThr(3R)][Trp(7-Me)][Lys(Me)](Ac)[Pen]Y(X3)[2Nal]A[Lys(Me)](Ac)N[3Pal][Sar]-NMe2; disulfide 1-6)	5.7 nM	165 A^2
CC(=O)N(C)CCCC[C@@H]1NC(=O)[C@H](CC(C)C)NC(=O)[C@H]([C@@H](C)O)NC(=O)[C@H](CC(=O)N(C)C)NC(=O)[C@@H](NC(=O)CCOCCOCC[N+](C)(C)C)C(C)(C)SSC(C)(C)[C@@H](C(=O)N[C@@H](Cc2ccc(OCCOCCOCC[N+](C)(C)C)cc2)C(=O)N[C@@H](CC(C)C)C(=O)NC2(C(=O)N[C@@H](CCCCN(C)C(C)=O)C(=O)N[C@@H](CC(N)=O)C(=O)N[C@@H](Cc3cccnc3)C(=O)N(C)CC(=O)N(C)C)CCOCC2)NC1=O [compound 566, cPEG3aCO-Pen(3)-N(N(Me)2)-T-L-K(NMeAc)-Pen(3)-APEG3F-L-THP-K(NMeAc)-N-3Pya-Sar-CON(Me)2] ({Me3N+(CH2)2O(CH2)2O(CH2)2CO}-[Pen]D(NMe2)TL[Lys(Me)](Ac)[Pen]Y(CH2CH2OCH2CH2OCH2CH2NMe3+)L[Thp][Lys(Me)](Ac)N[3Pal][Sar]-NMe2; disulfide 1-6)	> 3320 nM	137 A^2
CC(=O)N[C@@H]1C(=O)N[C@@H](C)C(=O)N[C@@H]([C@@H](C)O)C(=O)N[C@@H](Cc2c[nH]c3c(C)cccc23)C(=O)N[C@@H](C)C(=O)N[C@H](C(=O)N[C@@H](Cc2ccc(OCCN(C)C)cc2)C(=O)N[C@@H](Cc2ccc3ccccc3c2)C(=O)NC2(C(=O)N[C@@H](CCC(=O)O)C(=O)N[C@@H](CC(N)=O)C(=O)N[C@@H](Cc3cccnc3)C(=O)N(C)CC(=O)N(C)C)CCOCC2)C(C)(C)SSC1(C)C [compound 119] (Ac-[Pen]AT[Trp(7-Me)]A[Pen]Y(Me2NCH2CH2)[2Nal][Thp]EN[3Pal][Sar]-NMe2; disulfide 1-6 (inferred))	6.3 nM	159 A^2
COCC[N+](C)(C)CCc1cn(C[C@H](NC(=O)[C@H]2NC(=O)[C@H](CCCCN(C)C(C)=O)NC(=O)[C@H](Cc3c[nH]c4c(C)cccc34)NC(=O)[C@H]([C@@H](C)O)NC(=O)[C@H](CC(=O)N(C)C)NC(=O)[C@@H](NC(=O)CCOCCOCC[N+](C)(C)C)C(C)(C)SSC2(C)C)C(=O)N[C@@H](Cc2ccc3ccccc3c2)C(=O)NC2(C(=O)N[C@@H](CCCCN(C)C(C)=O)C(=O)N[C@@H](CC(N)=O)C(=O)N[C@@H](Cc3cccnc3)C(=O)N(C)CC(=O)N(C)C)CCOCC2)nn1 [compound 288, cPEG3aCO-Pen(3)-N(N(Me)2)-T-7MeW-K(NMeAc)-Pen(3)-TzlChmPEG-2Nal-THP-K(NMeAc)-N-3Pya-Sar-CON(Me)2]	24 nM	144 A^2
COCCOCCOCCOCCOCCOCCC(=O)N(C)CC[C@@H]1NC(=O)[C@H](Cc2c[nH]c3c(C)cccc23)NC(=O)[C@H]([C@@H](C)O)NC(=O)[C@H](CC(=O)N(C)C)NC(=O)[C@@H](NC(C)=O)C(C)(C)SSC(C)(C)[C@@H](C(=O)N[C@@H](Cc2ccc(OCCN)cc2)C(=O)N[C@@H](Cc2ccc3ccccc3c2)C(=O)NC2(C(=O)N[C@@H](CCN(C)C(=O)CCOCCOCCOCCOCCOCCOC)C(=O)N[C@@H](CC(N)=O)C(=O)N[C@@H](Cc3cccnc3)C(=O)N(C)CC(=O)N(C)C)CCOCC2)NC1=O [compound 141, MeCO-Pen(3)-N(N(Me)2)-T-7MeW-Dab(NMeCOmPEG6)-Pen(3)-AEF-2Nal-THP-Dab(NMeCOmPEG6)-N-3Pya-Sar-CON(Me)2] (Ac-[Pen]D(NMe2)T[Trp(7-Me)][X1](X7)[Pen][AEF][2Nal][Thp][X1](X7)N[3Pal][Sar]-NMe2; disulfide 1-6)	5.7 nM	140 A^2
CC(=O)NCCCC[C@@H]1NC(=O)[C@H](Cc2c[nH]c3c(C)cccc23)NC(=O)[C@H]([C@@H](C)O)NC(=O)[C@H](CC(N)=O)NC(=O)[C@@H](NC(=O)[C@@H](CCCCNC(=O)CCOCCOCCOCCOCCOCCOCCNC(C)=O)NC(C)=O)C(C)(C)SSC(C)(C)[C@@H](C(=O)N[C@@H](Cc2ccc(OCCN)cc2)C(=O)N[C@@H](Cc2ccc3ccccc3c2)C(=O)NC2(C(=O)N[C@@H](CCCCNC(C)=O)C(=O)N[C@@H](CC(N)=O)C(=O)N[C@@H](Cc3cccnc3)C(=O)N(C)CC(N)=O)CCOCC2)NC1=O [compound 39] (Ac-[dK]([PEG6-Ac])[Pen]NT[Trp(7-Me)]K(Ac)[Pen][AEF][2Nal][Thp]K(Ac)N[3Pal][Sar]-NH2; disulfide 2-7 (inferred))	5.5 nM	158 A^2
CC(=O)N(C)CCCC[C@@H]1NC(=O)[C@H](Cc2c[nH]c3c(C)cccc23)NC(=O)[C@H]([C@@H](C)O)NC(=O)[C@H](CC(=O)N(C)C)NC(=O)[C@@H](NC(=O)CCOCCOCC[N+](C)(C)C)C(C)(C)SSC(C)(C)[C@@H](C(=O)N[C@@H](Cc2ccc(OCCNCCOCC[N+](C)(C)C)cc2)C(=O)N[C@@H](Cc2ccc3ccccc3c2)C(=O)NC2(C(=O)N[C@@H](CCCCN(C)C(C)=O)C(=O)N[C@@H](CC(N)=O)C(=O)N[C@@H](Cc3cccnc3)C(=O)N(C)CC(=O)N(C)C)CCOCC2)NC1=O [compound 238, cPEG3aCO-Pen(3)-N(N(Me)2)-T-7MeW-K(NMeAc)-Pen(3)-AEF(PEG2a)-2Nal-THP-K(NMeAc)-N-3Pya-Sar-CON(Me)2] ({Me3N+(CH2)2O(CH2)2O(CH2)2CO}-[Pen]D(NMe2)T[Trp(7-Me)][Lys(Me)](Ac)[Pen]Y(X52)[2Nal][Thp][Lys(Me)](Ac)N[3Pal][Sar]-NMe2; disulfide 1-6)	3.5 nM	145 A^2
Cc1cccc2c(C[C@@H]3NC(=O)[C@H]([C@@H](C)O)NC(=O)[C@H](CC(=O)N(C)C)NC(=O)[C@@H](NC(=O)CCOCCOCC[N+](C)(C)C)C(C)(C)SSC(C)(C)[C@@H](C(=O)N[C@@H](Cc4ccc(OCCN)cc4)C(=O)N[C@@H](Cc4ccc5ccccc5c4)C(=O)NC4(C(=O)N[C@@H](CCC(=O)N(C)C)C(=O)N[C@@H](CC(N)=O)C(=O)N[C@@H](Cc5cccnc5)C(=O)N(C)CC(N)=O)CCOCC4)NC(=O)[C@H](CCC(=O)N(C)C)NC3=O)c[nH]c12 [compound 147, cPEG3aCO-Pen(3)-N(N(Me)2)-T-7MeW-Q(N(Me)2)-Pen(3)-AEF-2Nal-THP-Q(N(Me)2)-N-3Pya-Sar-CONH2] ({Me3N+(CH2)2O(CH2)2O(CH2)2CO}-[Pen]D(NMe2)T[Trp(7-Me)]E(NMe2)[Pen][AEF][2Nal][Thp]E(NMe2)N[3Pal][Sar]-NH2; disulfide 1-6)	3.8 nM	156 A^2
